Test results taken from US8986650B2, “Complex folate-NOTA-Ga68” (Guerbet, priority 2005, dated 2015).
Like-named read-outs stand apart in the source and are kept apart here. One block for each compound: values may come before it.

Key:
[1] = tested on: ovarian cancer; conditions: patients, phase I/II study; cited from earlier work
[2] = tested on: KB tumor cells (FR+)
Method: Nude mice bearing KB-tumors were used for this study.
The NODAGA-LINKER-FOLATE derivative was labeled with ^67Ga by incubation at RT with 37 MBq of ^67GaCl3 in HEPES buffer. […] It was diluted with 0.9% NaCl at a concentration of 4 nmol/ml and this solution was injected to the mice (100 μl/0.4 nmol/mouse).
One week before the tumor cell inoculation all mice were put under a folate low diet (SAFE company, semi-synthetic product with 50 μg/kg of folate) until the end of the study.
At D0, the tumor inoculation was performed as follow: One million (10^6) of KB tumor cells (FR+) resuspended at 1×10^7 cells/ml in sterile PBS 0.01M, pH 7.4, were subcutaneously inoculated in the right flank of the nude mice in a volume of 100 μl. The tumors were allowed to grow for 8-9 days. For the in vivo evaluation the mice were grouped in groups of 3 mice per group.
At D9 biodistribution studies were performed for the ^67Ga-NODAGA-LINKER-FOLATE (compound 2′ complexed by Ga67) in groups of mice as follow: • 3 groups: injection with ^67Ga-NODAGA-LINKER-FOLATE (compound 2′ complexed by Ga67) (0.4 nmol/10 μCi/100 μl/mouse) • 1 group: injection of Folic acid (40 nmol/100 μl/mouse) 5 min before the injection of ^67Ga-NODAGA-LINKER-FOLATE (compound 2′ complexed by Ga67) • 1 group: injection of Alimta (400 μg/100 μl/mouse) 1 h before the injection of ^67Ga-NODAGA-LINKER-FOLATE (compound 2′ complexed by Ga67) • Time points: 2 h, 4 h, 4 h (blocking with FA), 4 h (kidney blocking with Alimta), 24 h p.i. Results

[3] = tested on: KB tumor cells (FR+); experiment: Biodistribution of NODAGA-LINKER-FOLATE-Ga68 in nude mice bearing KB-tumors; type: in vivo; conditions: for Ratio tumor:blood / Ratio tumor:bone / Ratio tumor:kidney / Ratio tumor:liver / Ratio tumor:muscle / Ratio tumor:pancreas / Ratio tumor:parotid: 1 h post-injection
Method: The NODAGA-LINKER-FOLATE derivative was labeled with ^68Ga using the Modular-Lab automatic system by Eckert & Ziegler.
NODAGA-LINKER-FOLATE-Ga68 compound (compound 2) was obtained in radiochemical purity preferably >92 to >98%.
At D0, the tumor inoculation was performed as follow: One million (10^6) of KB tumor cells (FR+) resuspended at 1×10^7 cells/ml in sterile PBS 0.01M, pH 7.4, were subcutaneously inoculated in the right flank of the nude mice in a volume of 100 μl.
At D8 biodistribution studies and PET/CT images were performed for NODAGA-folate-Ga68 (compound 2) in 2 groups of mice as follow: • 1 group: injection with NODAGA-LINKER-FOLATE-Ga68 (compound 2) (0.4 nmol/2 MBq/100 μl/mouse) • 1 group: injection of Alimta (400 μg/100 μl/mouse) 1 h before the injection of NODAGA-LINKER-FOLATE-Ga68 (compound 2) • Time point: 1 h p.i.

[4] = Parotid gland uptake in normal mice without folate-free diet; type: in vivo; conditions: no folate-free diet
[5] = tested on: OVCAR-3 tumors; experiment: Biodistribution and PET/CT imaging in mice model bearing OVCAR-3 tumor; type: in vivo, SCID mice
Method: Similar protocol was used for OVCAR-3 tumor models.
For the kidney blocking the antifolate Alimta, at a concentration of 4 mg/ml in PBS pH 7.4 was used.
For the Folate Receptors blocking Folic acid in 100-fold excess (400 nmol/ml) in PBS pH 7.4 was used.

[6] = 4 h Alimta pre-injection (400 μg/mouse, 1 h)
[7] = 4 h blocking with Folic acid (100-fold excess, 5 min pre-injection)
[8] = Group 1: Alimta 400 μg/mouse 1 h pre-injection

Structure (SMILES): Nc1nc2ncc(CNc3ccc(C(=O)N[C@@H](CCC(=O)NCCNC(=O)CN(CCN(CCN(CC(=O)[O-])CC(=O)[O-])CC(=O)[O-])CC(=O)[O-])C(=O)O)cc3)nc2c(=O)[nH]1.[111In] [111In-DTPA-folate]
Target-tissue uptake and non target-tissue clearance [1]: rapid target-tissue uptake and non target-tissue clearance

Biodistribution, Parotid gland ([2]; 2 h): 9.10 ± 3.39
Biodistribution, adrenal ([2]; 2 h): 3.09 ± 0.52
Biodistribution, blood ([2]; 2 h): 0.09 ± 0.02
Biodistribution, intestine ([2]; 2 h): 0.50 ± 0.12
Biodistribution, kidney ([2]; 2 h): 142.14 ± 15.46
Biodistribution, liver ([2]; 2 h): 1.38 ± 0.50
Biodistribution, lung ([2]; 2 h): 1.32 ± 0.15
Biodistribution, muscle ([2]; 2 h): 1.49 ± 0.18
Biodistribution, pancreas ([2]; 2 h): 2.91 ± 0.08
Biodistribution, pituitary ([2]; 2 h): 0.53 ± 0.24
Biodistribution, spleen ([2]; 2 h): 0.48 ± 0.11
Biodistribution, stomach ([2]; 2 h): 1.58 ± 0.12
Biodistribution, Parotid gland ([2]; 4 h): 8.58 ± 2.33
Biodistribution, adrenal ([2]; 4 h): 2.80 ± 0.10
Biodistribution, blood ([2]; 4 h): 0.06 ± 0.01
Biodistribution, intestine ([2]; 4 h): 0.43 ± 0.16
Biodistribution, kidney ([2]; 4 h): 130.31 ± 14.65
Biodistribution, liver ([2]; 4 h): 1.07 ± 0.18
Biodistribution, lung ([2]; 4 h): 1.36 ± 0.37
Biodistribution, muscle ([2]; 4 h): 2.12 ± 0.31
Biodistribution, pancreas ([2]; 4 h): 2.92 ± 0.11
Biodistribution, pituitary ([2]; 4 h): 0.79 ± 0.74
Biodistribution, spleen ([2]; 4 h): 0.46 ± 0.10
Biodistribution, stomach ([2]; 4 h): 1.47 ± 0.08
Biodistribution, Parotid gland [2, 6]: 6.10 ± 2.09
Biodistribution, adrenal [2, 6]: 1.75 ± 0.23
Biodistribution, blood [2, 6]: 0.04 ± 0.01
Biodistribution, intestine [2, 6]: 0.50 ± 0.37
Biodistribution, kidney [2, 6]: 19.13 ± 6.66
Biodistribution, liver [2, 6]: 0.88 ± 0.26
Biodistribution, lung [2, 6]: 0.68 ± 0.18
Biodistribution, muscle [2, 6]: 1.26 ± 0.38
Biodistribution, pancreas [2, 6]: 2.20 ± 0.69
Biodistribution, pituitary [2, 6]: 0.59 ± 0.41
Biodistribution, spleen [2, 6]: 0.31 ± 0.13
Biodistribution, stomach [2, 6]: 0.84 ± 0.31
Biodistribution, Parotid gland [2, 7]: 0.18 ± 0.06
Biodistribution, adrenal [2, 7]: 0.02 ± 0.01
Biodistribution, blood [2, 7]: 0.00 ± 0.00
Biodistribution, intestine [2, 7]: 0.08 ± 0.07
Biodistribution, kidney [2, 7]: 6.49 ± 1.03
Biodistribution, liver [2, 7]: 0.06 ± 0.00
Biodistribution, lung [2, 7]: 0.06 ± 0.00
Biodistribution, muscle [2, 7]: 0.03 ± 0.00
Biodistribution, pancreas [2, 7]: 0.05 ± 0.00
Biodistribution, pituitary [2, 7]: −0.02 ± 0.01
Biodistribution, spleen [2, 7]: 0.04 ± 0.01
Biodistribution, stomach [2, 7]: 0.09 ± 0.06
Biodistribution, Parotid gland ([2]; 24 h): 5.57 ± 0.82
Biodistribution, adrenal ([2]; 24 h): 5.04 ± 5.96
Biodistribution, blood ([2]; 24 h): 0.04 ± 0.02
Biodistribution, intestine ([2]; 24 h): 0.37 ± 0.13
Biodistribution, kidney ([2]; 24 h): 97.62 ± 11.59
Biodistribution, liver ([2]; 24 h): 0.87 ± 0.16
Biodistribution, lung ([2]; 24 h): 0.94 ± 0.31
Biodistribution, muscle ([2]; 24 h): 1.14 ± 0.01
Biodistribution, pancreas ([2]; 24 h): 2.37 ± 0.17
Biodistribution, pituitary ([2]; 24 h): 0.41 ± 0.39
Biodistribution, spleen ([2]; 24 h): 0.37 ± 0.13
Biodistribution, stomach ([2]; 24 h): 1.01 ± 0.10
Time of maximum tumor uptake ([2]; KB-tumor bearing nude mice): 2 h p.i.
Tumor uptake ([2]; at 24 h p.i.): remains high
Specificity of tumor uptake ([2]; blocking experiment with folic acid): specific
Kidney uptake ([2]; with the use of Alimta): significantly reduced
Tumor uptake ([2]; with the use of Alimta): remained the same
Structure (SMILES): Nc1nc2ncc(CNc3ccc(C(=O)N[C@@H](CCC(=O)NCCNC(=O)CCC(C(=O)[O-])N4CCN(CC(=O)[O-])CCN(CC(=O)[O-])CC4)C(=O)O)cc3)nc2c(=O)[nH]1.[67Ga+3] (some centres unmarked) [NODAGA-LINKER-FOLATE-Ga67]

Ratio tumor:blood [3, 8]: 49.33
Ratio tumor:bone [3, 8]: 20.96
Ratio tumor:kidney [3, 8]: 0.69
Ratio tumor:liver [3, 8]: 10.49
Ratio tumor:muscle [3, 8]: 13.32
Ratio tumor:pancreas [3, 8]: 9.30
Ratio tumor:parotid [3, 8]: 2.63
Ratio tumor:blood ([3]; Group 2: no Alimta): 64.85
Ratio tumor:bone ([3]; Group 2: no Alimta): 28.11
Ratio tumor:kidney ([3]; Group 2: no Alimta): 0.17
Ratio tumor:liver ([3]; Group 2: no Alimta): 6.64
Ratio tumor:muscle ([3]; Group 2: no Alimta): 9.95
Ratio tumor:pancreas ([3]; Group 2: no Alimta): 6.89
Ratio tumor:parotid ([3]; Group 2: no Alimta): 1.72
Uptake in the parotid gland ([3]; KB-tumor mice under folate-free diet): High uptake
High uptake in the parotid gland [4]: This was not the case
PET/CT images: background ([5]; 1 h post injection): negligible background
PET/CT images: kidneys ([5]; 1 h post injection): high uptake in the kidneys
Structure (SMILES): Nc1nc2ncc(CNc3ccc(C(=O)N[C@@H](CCC(=O)NCCNC(=O)CCC(C(=O)O)N4CCN(CC(=O)O)CCN(CC(=O)O)CC4)C(=O)O)cc3)nc2c(=O)[nH]1 (some centres unmarked) [NODAGA-LINKER-FOLATE-Ga68, folate-NODAGA-Ga68, metal not drawn]
PET/CT images: tumors ([5]; 1 h post injection): clear visualization of the tumors
Quality of PET/CT images ([5]; mouse, in vivo): Very satisfying
